“And” between values parts separate entries of the source, which are not always exact repeats. Equal entries are not always repeated. Where two headings read alike, the source gives them in different places.
What was measured:
MeV = conditions: depending on the MeV-strain; read-out: in vitro EC50; cited from earlier work
[1] = Single-dose oral pharmacokinetic study in squirrel monkeys (LC/MS/MS serum concentrations); assay type: in vivo, squirrel monkeys (Saimiri sciureus); conditions: for tmax: 50 mg/kg oral (intragastric) single dose
Protocol: All animal experiments were carried out in compliance with the regulations of German animal protection laws and authorized by the Regierungspräsidium Darmstadt, Germany (Dezernat V54 – Veterinärwesen und Verbraucherschutz, Hilpertstrasse 31, 64295 Darmstadt). Adult male and female squirrel monkeys (Saimiri sciureus) were obtained from BioPRIM, 31450 Baziege, or CNRS 0846 Primatologie, 13790 Rousset, France. Each experimental group was housed in a separate room, and animals of the same sex were caged together within the respective groups. For the single-dose pharmacokinetic experiment, animals were anesthetized, and the drug was given through a stomach tube at a concentration of 50 mg/kg bodyweight. Blood samples were collected after 15, 30, and 60 min, and 2, 3, 6, and 24 h. For efficacy assessment, groups of 6 animals were left untreated or treated with 50 mg/kg of ERDRP-0519 twice daily for two weeks, starting either 12 h before or 3 or 7 days after intranasal infection with 10^6 TCID50 of MV/FrankfurtMain.DEU/17.11. Clinical signs, rectal temperature, and weight were recorded daily, and throat swabs and blood samples were collected before infection and twice weekly thereafter. On day 21 post-infection, the animals were euthanized, necropsied, and samples were collected for histological analysis.
Drug concentrations were determined using an internal standard and a reversed phase isocratic HPLC method with positive ion electrospray ionization (ESI) mass spectrometry detection (LC/MS/MS) on an AB-SCIEX API 5500 MS/MS instrument (5 μl injection volume). Pharmacokinetic parameters were estimated using WinNonlin 5.3 (Pharsight).

MeV N gene RNA = test: Quantitative RT-PCR of MeV N RNA in PBMCs; assay type: in vivo
Protocol: Organs (21 days post-infection) and PBMCs (twice a week) were frozen in RNAlater (Qiagen) at −80 °C until further processing. For the deceased animal, organs were frozen in RNAlater at the day of death. Lymph nodes were thawed on ice, transferred to TRIzol (ambion life technologies) and homogenized using a tissue homogenizer. Total RNA of lymph nodes and PBMCs was extracted following the TRIzol manufacturer’s protocol. RNA (1000 ng for lymph nodes; 110 ng for PBMCs) was then subjected to reverse transcription using random hexamer primers and Superscript III reverse transcriptase in accordance with the manufacturer’s protocols. Subsequent quantitative PCR (qPCR) was carried out using primer pairs specific for a fragment in the MeV N gene[23] or GAPDH gene(Supplementary Table 2) and the PowerUp SYBR Green Master Mix (Thermo Fisher Scientific) in an Applied Biosystems 7500 Real-Time PCR system. Samples were normalized for GAPDH. The comparative (ΔΔCt) Ct method was applied to determine relative amounts of N-encoding RNA present in samples from treated animals compared to those obtained from untreated control animals (lymph nodes) or compared to those obtained from untreated control animals on day 7 post-infection (peak PBMC virus titer).

[2] = both sexes, monkey, serum, squirrel monkeys, 50 mg/kg oral single dose, n = 3

Cn1nc(C(F)(F)F)cc1C(=O)Nc1ccc(S(=O)(=O)N2CCCC[C@H]2CCN2CCOCC2)cc1 [ERDRP-0519]
EC50 (MeV): 70 to 300 nM
concentration at 2 h ([1]; 50 mg/kg oral, 0.25 h post-application, individual animals, read-out: ERDRP-0519 serum conc.): 0.6722 µM and 1.545 µM and 3.833 µM
concentration at 2 h ([1]; 50 mg/kg oral, 0.5 h post-application, individual animals, read-out: ERDRP-0519 serum conc.): 0.6911 µM and 0.9177 µM and 3.493 µM
concentration at 2 h ([1]; 50 mg/kg oral, 1 h post-application, individual animals, read-out: ERDRP-0519 serum conc.): 1.158 µM and 2.002 µM and 3.607 µM
concentration at 2 h ([1]; 50 mg/kg oral, 2 h post-application, individual animals, read-out: ERDRP-0519 serum conc.): 3.078 µM and 3.04 µM
concentration at 2 h ([1]; 50 mg/kg oral, 3 h post-application, individual animals, read-out: ERDRP-0519 serum conc.): 2.889 µM and 2.172 µM
concentration at 2 h ([1]; 50 mg/kg oral, 6 h post-application, individual animals, read-out: ERDRP-0519 serum conc.): 1.2595 µM and 0.9914 µM
concentration at 2 h ([1]; 50 mg/kg oral, 24 h post-application, individual animals, read-out: ERDRP-0519 serum conc.): 0.03909 µM and 0.098 µM and 0.07799 µM
concentration at 0 h ([1]; both sexes, monkey, serum, oral, 50 mg/kg, 50 mg/kg oral, 0 h post-application, individual animals, read-out: ERDRP-0519 serum conc.): 0 nM
concentration at 2 h ([1]; both sexes, monkey, serum, oral, 50 mg/kg, 50 mg/kg oral, 2 h post-application, individual animals, read-out: ERDRP-0519 serum conc.): 2.49 µM
concentration at 3 h ([1]; both sexes, monkey, serum, oral, 50 mg/kg, 50 mg/kg oral, 3 h post-application, individual animals, read-out: ERDRP-0519 serum conc.): 2510 nM
concentration at 6 h ([1]; both sexes, monkey, serum, oral, 50 mg/kg, 50 mg/kg oral, 6 h post-application, individual animals, read-out: ERDRP-0519 serum conc.): 1340 nM
tmax ([1]; both sexes, monkey, serum, po, 50 mg/kg, squirrel monkeys, n = 3, read-out: tmax): 1.8 h
AUC(0-inf) [1, 2]: 24.4 µM·h
Cmax [1, 2]: 3.27 µM
half-life ([1]; both sexes, monkey, serum, squirrel monkeys, 50 mg/kg oral single dose, n = 3, read-out: t1/2 terminal elimination half-life (converted)): 252 min
tmax ([1]; squirrel monkeys, n = 3, 50 mg/kg): ~ 2 h
Supp. Figure 3a, relative MeV N RNA in PBMCs, group mean (Mean 2) (MeV N gene RNA; prophylactic, Day 0): -12.26
Supp. Figure 3a, relative MeV N RNA in PBMCs, group mean (Mean 2) (MeV N gene RNA; prophylactic, Day 3): -12.06
Supp. Figure 3a, relative MeV N RNA in PBMCs, group mean (Mean 2) (MeV N gene RNA; prophylactic, Day 7): -11.48
Supp. Figure 3a, relative MeV N RNA in PBMCs, group mean (Mean 2) (MeV N gene RNA; prophylactic, Day 10): -12.34
Supp. Figure 3a, relative MeV N RNA in PBMCs, group mean (Mean 2) (MeV N gene RNA; prophylactic, Day 14): -13.16
Supp. Figure 3a, relative MeV N RNA in PBMCs, group mean (Mean 2) (MeV N gene RNA; prophylactic, Day 17): -11.47
Supp. Figure 3a, relative MeV N RNA in PBMCs, group mean (Mean 2) (MeV N gene RNA; prophylactic, Day 21): -10.12
Supplemental Figure 3a source data, relative MeV N RNA in PBMCs, individual animals (MeV N gene RNA; prophylactic, time (d) 0): -12.3202 and -6.433 and -10.4614 and -17.6101 and -12.9356 and -13.7878
Supplemental Figure 3a source data, relative MeV N RNA in PBMCs, individual animals (MeV N gene RNA; prophylactic, time (d) 3): -12.847 and -12.9062 and -10.7172 and -12.2727 and -12.1274 and -11.494
Supplemental Figure 3a source data, relative MeV N RNA in PBMCs, individual animals (MeV N gene RNA; prophylactic, time (d) 7): -12.6218 and -9.583 and -12.0312 and -12.5732 and -12.8193 and -9.245
Supplemental Figure 3a source data, relative MeV N RNA in PBMCs, individual animals (MeV N gene RNA; prophylactic, time (d) 10): -9.991 and -12.9071 and -11.8528 and -13.7115 and -14.2547 and -11.2939
Supplemental Figure 3a source data, relative MeV N RNA in PBMCs, individual animals (MeV N gene RNA; prophylactic, time (d) 14): -12.3346 and -10.7326 and -10.4158 and -12.9517 and -16.1088 and -16.4382
Supplemental Figure 3a source data, relative MeV N RNA in PBMCs, individual animals (MeV N gene RNA; prophylactic, time (d) 17): -14.0262 and -7.645 and -8.833 and -10.0876 and -14.1769 and -14.0235
Supplemental Figure 3a source data, relative MeV N RNA in PBMCs, individual animals (MeV N gene RNA; prophylactic, time (d) 21): -13.9134 and -10.311 and -12.0659 and -11.4656 and -0.8977 and -12.0848
Supp. Figure 3a, relative MeV N RNA in PBMCs, group mean (Mean 2) (MeV N gene RNA; therapeutic (d3), Day 0): -13.2
Supp. Figure 3a, relative MeV N RNA in PBMCs, group mean (Mean 2) (MeV N gene RNA; therapeutic (d3), Day 3): -12.07
Supp. Figure 3a, relative MeV N RNA in PBMCs, group mean (Mean 2) (MeV N gene RNA; therapeutic (d3), Day 7): -9.205
Supp. Figure 3a, relative MeV N RNA in PBMCs, group mean (Mean 2) (MeV N gene RNA; therapeutic (d3), Day 10): -9.289
Supp. Figure 3a, relative MeV N RNA in PBMCs, group mean (Mean 2) (MeV N gene RNA; therapeutic (d3), Day 14): -11.53
Supp. Figure 3a, relative MeV N RNA in PBMCs, group mean (Mean 2) (MeV N gene RNA; therapeutic (d3), Day 17): -11.67
Supp. Figure 3a, relative MeV N RNA in PBMCs, group mean (Mean 2) (MeV N gene RNA; therapeutic (d3), Day 21): -13.06
Supplemental Figure 3a source data, relative MeV N RNA in PBMCs, individual animals (MeV N gene RNA; therapeutic (d3), time (d) 0): -12.185 and -15.2199 and -11.755 and -14.0483 and -12.7958

Source: article PMC8413292, “Small-molecule polymerase inhibitor protects non-human primates from measles and reduces shedding” (Nature Communications, 2021)
